Measured values published in patent publication US7388027B2, “Bicyclic compounds as modulators of androgen receptor function and method” (Bristol-Myers Squibb Company, priority 2004, dated 2008).

Key:
AR = molecular target: T1, AR (Rattus norvegicus, UniProt P15207)
T1 sequence (P15207 1-902): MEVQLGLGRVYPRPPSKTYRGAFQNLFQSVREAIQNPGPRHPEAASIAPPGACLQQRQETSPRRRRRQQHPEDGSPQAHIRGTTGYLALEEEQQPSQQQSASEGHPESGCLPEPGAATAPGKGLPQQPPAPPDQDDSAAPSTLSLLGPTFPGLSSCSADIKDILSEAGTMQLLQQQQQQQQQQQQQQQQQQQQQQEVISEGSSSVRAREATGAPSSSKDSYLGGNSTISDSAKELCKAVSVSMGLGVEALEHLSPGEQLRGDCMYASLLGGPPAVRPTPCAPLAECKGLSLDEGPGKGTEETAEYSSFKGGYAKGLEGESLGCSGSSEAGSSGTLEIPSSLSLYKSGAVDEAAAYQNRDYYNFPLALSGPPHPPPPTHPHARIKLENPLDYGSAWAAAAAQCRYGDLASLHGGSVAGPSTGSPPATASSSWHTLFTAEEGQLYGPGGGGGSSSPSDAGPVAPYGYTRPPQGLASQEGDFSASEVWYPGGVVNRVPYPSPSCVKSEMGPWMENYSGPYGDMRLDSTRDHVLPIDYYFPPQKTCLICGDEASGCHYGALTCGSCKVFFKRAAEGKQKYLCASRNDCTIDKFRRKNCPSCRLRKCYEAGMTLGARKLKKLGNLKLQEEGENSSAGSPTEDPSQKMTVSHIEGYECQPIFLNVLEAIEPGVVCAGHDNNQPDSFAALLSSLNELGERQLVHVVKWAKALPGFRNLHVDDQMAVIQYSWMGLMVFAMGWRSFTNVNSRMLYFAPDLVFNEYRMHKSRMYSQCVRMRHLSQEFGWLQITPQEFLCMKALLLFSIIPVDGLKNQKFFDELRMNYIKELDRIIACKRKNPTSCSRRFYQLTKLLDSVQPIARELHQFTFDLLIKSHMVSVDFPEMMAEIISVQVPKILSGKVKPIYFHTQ
Description: The activity of compounds of the present invention as AR agonists was investigated in an immature male rat model, a recognized test of anabolic effects in muscle and sustaining effects in sex organs for a given compound, as described in L. G. Hershberger et al., Proc. Soc. […] Biol. Med., 83, 175 (1953); B. L. Beyler et al, “Methods for evaluating anabolic and catabolic agents in laboratory animals”, J. Amer. Med. Women's Ass., 23, 708 (1968); H. Fukuda et al., “Investigations of the levator ani muscle as an anabolic steroid assay”, Nago Dai. Yak. Ken. Nem. 14, 84 (1966) the disclosures of which are herein incorporated by reference.
The basis of this assay lies in the well-defined action of androgenic agents on the maintenance and growth of muscle tissues and sexual accessory organs in animals and man. […] J. Anat. […] I. Quantitative data” Boll.-Soc. Ital. Biol. Sper. […] II. Electron-microscopic observations” Boll.-Soc. Ital. Biol. Sper. 42, 1600 (1966); A. Boris et al., Steroids 15, 61 (1970). As described above, the effects of androgens on maintenance of male sexual accessory organs, such as the prostate and seminal vesicles, is well described. Castration results in rapid involution and atrophy of the prostate and seminal vesicles. This effect can be reversed by exogenous addition of androgens. […]

[1] = test system: endogenous glucocorticoid receptor (A549 cells, AP-1 luciferase reporter); assay: In vitro assay to measure GR-induced AP-1 transrepression (luciferase reporter in A549 cells); type: cell-based; conditions: concentration of ≦10 μM; 10 ng/mL PMA; 7 h; typical value
Description: The AP-1 assay is a cell-based luciferase reporter assay. A549 cells, which contain endogenous glucocorticoid receptor, were stably transfected with an AP-1 DNA binding site attached to the luciferase gene. Cells are then grown in RPMI+10% fetal calf serum (charcoal-treated)+Penicillin/Streptomycin with 0.5 mg/mL geneticin. Cells are plated the day before the assay at approximately 40000 cells/well. On assay day, the media is removed by aspiration and 20 μL assay buffer (RPMI without phenol red+10% FCS (charcoal-treated)+Pen/Strep) is added to each well. At this point either 20 μL assay buffer (control experiments), the compounds of the present invention (“test compounds”) (dissolved in DMSO and added at varying concentrations) or dexamethasome (100 nM in DMSO, positive control) are added to each well. The plates are then pre-incubated for 15 min at 37° C., followed by stimulation of the cells with 10 ng/mL PMA. The plates are then incubated for 7 h at 37° C. after which 40 μL luciferase substrate reagent is added to each well. Activity is measured by analysis in a luminometer as compared to control experiments treated with buffer or dexamethasome.

[2] = test system: wild type AR (MDA 453 cells); conditions: read-out: Kd for [3H]-DHT, Scatchard analysis, 4 h at 37° C.
Description: For the whole-cell binding assay, human LNCaP cells (T877A mutant AR) or MDA 453 (wild type AR) in 96-well microtiter plates containing RPMI 1640 or DMEM supplemented with 10% charcoal stripped CA-FBS (Cocaleco Biologicals) respectively, were incubated at 37° C. to remove any endogenous ligand that might be complexed with the receptor in the cells.
For the saturation analysis, the difference between the total binding and the non-specific binding, was defined as specific binding. […] See e.g. D. Rodbard, Mathematics and statistics of ligand assays: an illustrated guide: In: J. Langon and J. J. Clapp, eds., Ligand Assay, Masson Publishing U.S.A., Inc., New York, pp. 45-99, (1981), the disclosure of which is herein incorporated by reference.
[formula] After correcting for non-specific binding, IC50 values were determined. […] C2C12 Mouse Myoblast Transactivation Assay

Compound: CCC(=O)O[C@H]1CC[C@H]2[C@@H]3CCC4=CC(=O)CC[C@]4(C)[C@H]3CC[C@]12C [TP, testosterone propionate]
- EC50 (increase in organ weight) (AR; immature castrated rats): ~0.03 mg
- potency relative to free T (AR; organ weight increase, rats): 10-30 fold

Compound: C[C@@H]1C[C@H]2[C@@H]3CCC4=CC(=O)C=C[C@]4(C)[C@@]3(F)[C@@H](O)C[C@]2(C)[C@@]1(O)C(=O)CO [dexamethasone]
- suppression of activity (% inhibition of the reporter system vs buffer control with PMA alone) [1]: 65%

Compound: tritiated dihydrotestosterone [[^3H]-DHT]
- Kd [2]: 0.7 nM
